Results taken from the OPERA property sets (Mansouri et al. 2018).

Conditions: not given

SMILES	melting point [°C]	boiling point [°C]	log10 vapour pressure (mmHg)	ready biodegradability	log10 Koc (L/kg)	log10 Henry constant (atm·m³/mol)
CN1C(C(=O)Nc2ccccn2)=C(O)c2ccccc2S1(=O)=O	199	–	–	–	–	–
C[Si](C)(C)C	-99	26.6	2.86	–	–	–
CCCCCCCCCCCCCC(=O)CC	43	–	–	–	–	–
CC(C)CC(=O)C=Cc1ccccc1	43	–	–	–	–	–
O=C1OC(=O)C2CCCCC12 (stereo not drawn)	–	–	–	not readily biodegradable	–	–
CC(C)[C@@H]1CCCCC1=O	72.5	–	–	–	–	–
BrCCCCOc1ccccc1	41	–	–	–	–	–
CC=C(CC)CC	–	96	1.72	–	–	–
Cc1coc2ccccc2c1=O	68	–	–	–	–	–
FC(Cl)=C(Cl)Cl	-109	71	–	–	–	–
NCc1ccccn1	–	203	–	–	–	–
Clc1ccc(Cc2ccccc2)cc1	7.5	299	–	–	–	–
CC(Cl)C(=O)CCl (stereo not drawn)	–	166	–	–	–	–
C[C@@H]1CC[C@H]2[C@@H]1[C@H]1[C@@H](CC[C@@]2(C)O)C1(C)C	105	292	–	–	–	–
O=C(O)c1c(Cl)c(Cl)c(Cl)c(Cl)c1C(=O)O	–	–	–	–	3.3	–
COc1cc(OC)c(OC)cc1C=O	114	–	–	–	–	–
CCCCCCCCCCCCCCCCCCCBr	–	–	-5.65	–	–	–
CC(O)COC(C)COC(C)CO (stereo not drawn)	–	–	–	not readily biodegradable	–	–
CNc1ccc(Cl)cc1	–	240	–	–	–	–
CC(C)c1cc(C(C)C)cc(C(C)C)c1	-7.4	238	–	–	–	–
O=C(O)c1nc[nH]c1C(=O)O	288	–	–	–	–	–
CC[C@](C)(N)C(=O)O (racemic)	316	–	–	–	–	–
CCCCCCCO	-34	176	-0.665	readily biodegradable	1.14	-4.73
OCCCO	-26.7	214	-1.36	–	–	–
O=c1oc2ccccc2cc1O	154	–	–	–	–	–
O=C(O)c1cc(Cl)c(Cl)c(Cl)c1Cl	194	–	–	–	–	–

SMILES	melting point [°C]	boiling point [°C]	log10 vapour pressure (mmHg)	ready biodegradability	log10 Koc (L/kg)	log10 Henry constant (atm·m³/mol)
O=C(O)c1cc(C(=O)O)c(C(=O)O)cc1C(=O)O	276	–	–	–	–	–
O=P(O)(Oc1ccccc1)Oc1ccccc1	67.5	–	–	–	–	–
CO[Si](C)(OC)OC	–	102	–	–	–	–
O=S(=O)(Cl)c1ccc(F)cc1	30	–	–	–	–	–
C[C@]12CC[C@H]3[C@@H](CCC4=CC(=O)CC[C@@]43C)[C@@H]1CC[C@@H]2OC(=O)CCC1CCCC1	155	–	–	–	–	–
Nc1nccs1	93	–	–	not readily biodegradable	–	–
Cl.ClCCN(Cc1ccccc1)Cc1ccccc1	192	–	–	–	–	–
C=C(C)C(C)CCC (stereo not drawn)	–	110	–	–	–	–
CC1(C)C2CC3C(C2)C31C	67.5	152	–	–	–	–
CNC(C)Cc1ccc(O)cc1 (stereo not drawn)	161	–	–	–	–	–
CCc1cccc2c1CCCC2	-44.5	245	–	–	–	–
CCN(CC)C(=S)SSC(=S)N(CC)CC	71.5	–	–	–	–	–
FC(Cl)=C(F)Cl	-130	21.1	2.95	–	–	–
CNC(C)C	–	50.4	–	–	–	–
NC(=O)Nc1ccc(Br)cc1	226	260	–	–	2.06	–
CN(C)C(=O)Nc1ccc(F)cc1	–	–	–	–	1.43	–
CCCCCCCCCCCCCCCCOCC(O)CO (stereo not drawn)	64	–	–	–	–	–
CC(C)c1cccc2ccccc12	-16	268	-2.22	–	–	–
CCC(C(=O)O)c1ccc(N2Cc3ccccc3C2=O)cc1 (stereo not drawn)	183	–	–	–	–	–
C[C@@H]1CC[C@@H](C)S1	-89	142	–	–	–	–
O=C[C@H](O)[C@@H](O)[C@H](O[C@@H]1O[C@H](CO)[C@@H](O)[C@H](O)[C@H]1O)[C@H](O)CO	240	–	–	–	–	–
C=CC1=CCCCC1	–	145	–	–	–	–
O=[N+]([O-])c1cccc(CCl)c1	46	–	–	–	–	–
COc1ccc(Cc2nccc3cc(OC)c(OC)cc23)cc1OC	148	–	–	–	–	–
ClCc1ccc(Cl)c(Cl)c1	37.5	241	–	not readily biodegradable	–	–

Same assay, conditions: fish

SMILES	log10 BCF
Clc1cc2oc3c(Cl)c(Cl)cc(Cl)c3c2c(Cl)c1Cl	3.2
